IC50 data for one compound are collected here from article PMC12621367, “Salvianolic acid C inhibits methane emissions in dairy cows by targeting MCR and reshaping the rumen microbial community” (Journal of Animal Science and Biotechnology, 2025).

In this assay the target is T1, Methyl-coenzyme M reductase (MCR).
T1 construct: gene mcrA; with McrB and McrG (β and γ subunits)
Briefly: MCR activity inhibition with a microbial MCR ELISA kit, dose-response, OD […] nm. It counts as biochemical, Methanothermobacter marburgensis.

Compound `O=C(/C=C/c1ccc(O)c2oc(-c3ccc(O)c(O)c3)cc12)O[C@H](Cc1ccc(O)c(O)c1)C(=O)O` [SAC, Salvianolic acid C] gave an IC50 of 692 µM.
